# Patent publication US10537535B2, “Histone deacetylase inhibitors” (The Regents of the University of California, priority 2015, dated 2020)
# How the values were obtained:
# [1] = target: T1, human HDAC2 (Homo sapiens, UniProt Q92769); assay: Fluorometric HDAC activity assay, purified human HDAC2; format: biochemical; settings: purified human HDAC2, n=4-5
# T1 construct: purchased BPS Bioscience 50062
# Description: In order to directly test whether diacetyl acts as an inhibitor of HDACs, in vitro acetylation assays was performed with purified human HDACs. In this example, β-hydroxybutyrate (a naturally-occurring HDAC inhibitor secreted by the liver, targeting zinc-dependent HDACs) was used for comparison. HDAC activity of class I HDACs (HDAC1, 2, 3 and 8) was measured with the fluorometric HDAC Activity Assay kit: HDAC1 (10011563, Cayman Chemical, Ann Arbor, Mich.), HDAC2, HDAC 3 and HDAC 8 (50062, 50073 and 50068, BPS Bioscience, San Diego, Calif.), according to the manufacturer's instructions.
# [2] = tested on: gene expression in the antenna of Drosophila melanogaster; assay: RNA-seq transcriptome analysis of Drosophila antennae after exposure or feeding; format: in vivo
# Excerpt: In order to examine the physiological effects of long-term exposure to an odorant, flies were maintained in vials with circulating volatiles from headspace of a low concentration (1% in paraffin oil) of the odorant diacetyl, which acts on a number of different receptor pathways in Drosophila. In a similar manner to previous odor-exposure studies, flies were exposed to diacetyl for 5 days and performed an RNA-seq analysis of the antennae, which are known odor-detecting organs. The transcriptome was compared with a control group of age-matched flies that were exposed to the headspace of the solvent paraffin oil (PO, FIG. 3A).
# Flies were exposed to diacetyl (2,3-Butanedione, B85307, Sigma-Aldrich, St. Louis, Mo.) by placing them in vials in a cylindrical closed container (112 mm diameter×151 mm height) along with an odor-containing glass vial. The odorant was dissolved in 10 mL paraffin oil at 1% dilution. For a given exposure protocol, two groups of flies were prepared: those exposed to 1% diacetyl headspace and those exposed to paraffin oil headspace alone (control flies). Adult male flies aged 1 d were transferred to fly vials containing fresh medium, and put into the container with the odor vial. At the end of the fifth day of exposure, flies were collected, and their antennae were dissected for RNA extraction. All treatments and experiments were performed at room temperature. For the recovery experiment, flies were transferred again to the container containing a glass vial of paraffin oil after 5 days of diacetyl exposure. At the end of the fifth day of recovery, flies were collected, and their antennae were dissected for RNA extraction.
# Sodium butyrate (B5887, Sigma-Aldrich) or valproic acid (P4543, Sigma-Aldrich) were dissolved in normal fly food medium at the final concentration of 10 mM. Three groups of flies were prepared: those treated with one of the HDAC inhibitors and those without HDAC inhibitor treatment (control flies). Adult flies aged 1 d were transferred to fly vials containing medium with or without a HDAC inhibitor. At the end of the fifth day of treatment, flies were collected, and their antennae were dissected for RNA extraction. All treatments and experiments were performed at room temperature.
# The second and third antennal segments from 40-60 male flies after treatment were carefully hand-dissected from the head, collected in 1.5 ml microfuge tubes kept cold in liquid nitrogen. Antennae were mechanically crushed with disposable RNAse-free plastic pestles, and total RNA was isolated using a Trizol-based protocol. cDNA libraries were prepared from total RNA (300-1000 ng/sample) using the Illumina TruSeq RNA Library Preparation Kit (Illumina Catalog #RS-122-2001). Samples were submitted to the UCR IIGB sequencing core for high-throughput sequencing using the Illumina HiSeq2500 platform. Raw reads were aligned to the Drosophila melanogaster reference genome (dmel-all-chromosome-r5.48.fasta) with Tophat2, and a count table of reads overlapping with exonic regions of genes was generated by the UCR bioinformatics core. The numbers of biological replicates are: 2, day 5 paraffin oil; 1, day 5 diacetyl; 2, day 5 mock; 2, day 5 sodium butyrate; 2, day 5 valproic acid; 2, day 10 paraffin oil recovery; 2, day 10 diacetyl recovery.
# The read count table for all the genes were then imported into R and a statistical analysis of differential gene expression using the DESeq package (1.22.0) was performed. […] The gene list analysis was performed using the GO Term Mapper (http://go.princeton.edu/) with Generic GO slim datasets, and the Statistical overrepresentation test was performed using the PANTHER classification (http://www.pantherdb.org/) system with GO complete datasets.
# This example investigates the overlap among genes modulated by diacetyl as compared to sodium butyrate and valproic acid, which are known HDAC inhibitors. […]
# [3] = 5 days, diacetyl 1% headspace, SB/VA 10 mM in food, vs control
# [4] = of 125 up-regulated genes, 5 days exposure then 5 days recovery
# [5] = out of 125 diacetyl-induced genes
# T1 sequence (Q92769 whole entry): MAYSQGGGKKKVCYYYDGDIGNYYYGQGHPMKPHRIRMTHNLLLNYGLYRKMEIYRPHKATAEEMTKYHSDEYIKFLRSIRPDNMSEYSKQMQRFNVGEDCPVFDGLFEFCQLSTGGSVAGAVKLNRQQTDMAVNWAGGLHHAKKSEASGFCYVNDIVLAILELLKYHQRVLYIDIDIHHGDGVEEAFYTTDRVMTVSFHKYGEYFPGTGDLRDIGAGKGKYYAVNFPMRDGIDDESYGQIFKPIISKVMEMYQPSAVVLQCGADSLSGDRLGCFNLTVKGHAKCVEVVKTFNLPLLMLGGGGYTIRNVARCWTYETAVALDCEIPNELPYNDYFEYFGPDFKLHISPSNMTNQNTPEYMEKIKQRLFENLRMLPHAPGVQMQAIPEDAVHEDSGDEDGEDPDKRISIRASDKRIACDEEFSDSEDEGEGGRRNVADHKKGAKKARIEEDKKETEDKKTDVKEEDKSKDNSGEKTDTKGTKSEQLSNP
compound,measurement,setting,value
"CC(=O)C(C)=O [diacetyl, 2,3-Butanedione]",IC50,[1],11.2 mM
same,number of differentially-expressed genes in antennal transcriptome,[2]; [3],202 genes
same,number of genes down-regulated >2-fold,[2]; [3],77 genes
same,number of genes up-regulated >2-fold,[2]; [3],125 genes
same,genes continuing to show increased mRNA abundance after odor removal,[2]; [4],11 genes
same,genes showing little change after recovery,[2]; [4],38 genes
same,transcripts showing a reduction with diacetyl recovery,[2]; [4],27 genes
same,diacetyl down-regulated genes overlapping with those down-regulated in either SB- or VA-treated groups,[2]; out of 77 down-regulated genes,About 28 genes
same,diacetyl-induced genes overlapping with SB-induced genes,[2]; [5],51 genes
same,diacetyl-induced genes overlapping with VA-induced genes,[2]; [5],40 genes
